Assay results as given in ChEMBL document CHEMBL1201862, “PubChem BioAssay data set” (2004).
Activity calls are given as the source filed them.

Key:
Assay type in all cases: functional
[1] = target: T1, DNA repair and recombination protein RAD54-like (Homo sapiens, UniProt Q92698); assay: inhibitors of human RAD54 branch migration, confirmation, biochemical, fluorescence, cherry-picked samples, dose series (AID 651657)
T1 sequence (Q92698 whole entry): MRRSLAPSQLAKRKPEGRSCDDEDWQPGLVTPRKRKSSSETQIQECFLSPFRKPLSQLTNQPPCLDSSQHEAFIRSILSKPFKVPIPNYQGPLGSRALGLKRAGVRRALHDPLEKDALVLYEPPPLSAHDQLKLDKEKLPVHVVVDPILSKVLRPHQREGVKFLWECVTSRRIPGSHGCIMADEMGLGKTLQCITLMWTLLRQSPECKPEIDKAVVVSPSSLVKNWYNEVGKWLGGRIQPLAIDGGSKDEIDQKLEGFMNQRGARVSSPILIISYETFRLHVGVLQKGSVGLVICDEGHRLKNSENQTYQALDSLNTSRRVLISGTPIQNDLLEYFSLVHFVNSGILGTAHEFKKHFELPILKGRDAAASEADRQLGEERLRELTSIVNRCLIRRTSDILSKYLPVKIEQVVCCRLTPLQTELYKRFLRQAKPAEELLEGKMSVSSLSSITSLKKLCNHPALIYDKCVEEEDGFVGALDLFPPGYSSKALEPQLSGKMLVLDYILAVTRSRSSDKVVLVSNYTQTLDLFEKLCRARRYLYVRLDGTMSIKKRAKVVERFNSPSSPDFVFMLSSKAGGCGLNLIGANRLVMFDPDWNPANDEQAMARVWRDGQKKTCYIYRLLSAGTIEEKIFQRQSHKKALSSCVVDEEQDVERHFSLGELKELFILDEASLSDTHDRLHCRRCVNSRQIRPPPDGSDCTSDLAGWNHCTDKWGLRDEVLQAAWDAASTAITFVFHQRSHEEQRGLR

[2] = target: T2, Sentrin-specific protease 8 (Homo sapiens, UniProt Q96LD8)
T2 sequence (Q96LD8 whole entry): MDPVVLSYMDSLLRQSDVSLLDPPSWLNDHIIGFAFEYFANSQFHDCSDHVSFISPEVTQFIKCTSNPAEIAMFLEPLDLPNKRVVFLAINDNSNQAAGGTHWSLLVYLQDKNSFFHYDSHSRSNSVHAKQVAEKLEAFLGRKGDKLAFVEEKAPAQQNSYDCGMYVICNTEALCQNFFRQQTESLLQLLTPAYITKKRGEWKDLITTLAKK

[3] = target: T2, Sentrin-specific protease 8; remark: listed apart in the source
Protein RecA = target: T3, Protein RecA (Mycobacterium tuberculosis, UniProt P9WHJ3); assay: Fluorescence Cell-Free Homogeneous Dose Retest to Identify Inhibitors of RecA-Intein Splicing Activity. [Related pubchem assays (depositor defined):AID2097, AID2223, AID489010, AID492950]
T3 sequence (P9WHJ3 whole entry): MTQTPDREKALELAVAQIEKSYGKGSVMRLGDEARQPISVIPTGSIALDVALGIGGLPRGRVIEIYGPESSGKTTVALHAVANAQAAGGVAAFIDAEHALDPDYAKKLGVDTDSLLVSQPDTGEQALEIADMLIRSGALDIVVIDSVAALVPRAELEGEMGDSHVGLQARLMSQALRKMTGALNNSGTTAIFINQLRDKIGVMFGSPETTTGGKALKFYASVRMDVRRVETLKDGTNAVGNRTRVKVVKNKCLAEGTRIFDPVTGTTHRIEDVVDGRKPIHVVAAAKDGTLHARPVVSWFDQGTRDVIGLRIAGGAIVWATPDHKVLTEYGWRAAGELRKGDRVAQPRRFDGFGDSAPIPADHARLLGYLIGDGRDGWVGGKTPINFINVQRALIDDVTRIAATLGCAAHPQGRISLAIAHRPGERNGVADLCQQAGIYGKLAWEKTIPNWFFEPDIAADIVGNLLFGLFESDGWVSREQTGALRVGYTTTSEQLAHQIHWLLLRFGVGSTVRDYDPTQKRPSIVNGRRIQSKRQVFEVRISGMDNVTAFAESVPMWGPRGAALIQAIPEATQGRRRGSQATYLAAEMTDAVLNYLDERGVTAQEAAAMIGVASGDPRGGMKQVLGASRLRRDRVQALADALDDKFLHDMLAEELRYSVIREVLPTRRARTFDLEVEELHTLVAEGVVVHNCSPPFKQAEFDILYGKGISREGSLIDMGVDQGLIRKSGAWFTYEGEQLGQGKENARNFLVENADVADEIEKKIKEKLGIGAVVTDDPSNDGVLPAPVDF

[4] = target: T4, Replicative DNA helicase DnaB (Mycobacterium tuberculosis, UniProt P9WMR3); assay: DnaB intein splicing inhibitors, dose response, biochemical, cell-free fluorescence (AID 449749)
T4 sequence (P9WMR3 whole entry): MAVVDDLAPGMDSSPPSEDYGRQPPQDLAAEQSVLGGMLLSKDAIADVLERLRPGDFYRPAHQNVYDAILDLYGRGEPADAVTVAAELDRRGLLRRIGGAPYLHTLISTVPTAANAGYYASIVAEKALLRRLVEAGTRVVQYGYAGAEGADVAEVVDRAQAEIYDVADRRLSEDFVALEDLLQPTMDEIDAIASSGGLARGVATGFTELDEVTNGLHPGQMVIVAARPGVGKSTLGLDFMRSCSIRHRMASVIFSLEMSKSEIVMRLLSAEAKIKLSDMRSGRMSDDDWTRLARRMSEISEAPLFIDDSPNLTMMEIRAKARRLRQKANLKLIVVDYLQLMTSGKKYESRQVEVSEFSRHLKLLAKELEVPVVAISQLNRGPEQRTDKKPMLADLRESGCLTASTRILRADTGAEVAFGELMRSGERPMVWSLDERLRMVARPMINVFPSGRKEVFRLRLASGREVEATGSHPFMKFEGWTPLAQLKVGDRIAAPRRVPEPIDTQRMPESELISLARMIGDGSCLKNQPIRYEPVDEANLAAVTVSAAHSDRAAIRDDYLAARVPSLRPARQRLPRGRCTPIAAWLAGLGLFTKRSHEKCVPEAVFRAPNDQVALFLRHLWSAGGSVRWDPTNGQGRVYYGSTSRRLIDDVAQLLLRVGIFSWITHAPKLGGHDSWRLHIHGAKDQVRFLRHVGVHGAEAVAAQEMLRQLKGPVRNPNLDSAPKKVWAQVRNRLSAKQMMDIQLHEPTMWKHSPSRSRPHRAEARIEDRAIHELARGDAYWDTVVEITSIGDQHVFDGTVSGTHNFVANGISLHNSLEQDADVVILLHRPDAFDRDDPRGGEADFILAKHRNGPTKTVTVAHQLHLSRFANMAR

Protein skinhead-1 = target: T5, Protein skinhead-1 (Caenorhabditis elegans, UniProt P34707)
T5 sequence (P34707 whole entry): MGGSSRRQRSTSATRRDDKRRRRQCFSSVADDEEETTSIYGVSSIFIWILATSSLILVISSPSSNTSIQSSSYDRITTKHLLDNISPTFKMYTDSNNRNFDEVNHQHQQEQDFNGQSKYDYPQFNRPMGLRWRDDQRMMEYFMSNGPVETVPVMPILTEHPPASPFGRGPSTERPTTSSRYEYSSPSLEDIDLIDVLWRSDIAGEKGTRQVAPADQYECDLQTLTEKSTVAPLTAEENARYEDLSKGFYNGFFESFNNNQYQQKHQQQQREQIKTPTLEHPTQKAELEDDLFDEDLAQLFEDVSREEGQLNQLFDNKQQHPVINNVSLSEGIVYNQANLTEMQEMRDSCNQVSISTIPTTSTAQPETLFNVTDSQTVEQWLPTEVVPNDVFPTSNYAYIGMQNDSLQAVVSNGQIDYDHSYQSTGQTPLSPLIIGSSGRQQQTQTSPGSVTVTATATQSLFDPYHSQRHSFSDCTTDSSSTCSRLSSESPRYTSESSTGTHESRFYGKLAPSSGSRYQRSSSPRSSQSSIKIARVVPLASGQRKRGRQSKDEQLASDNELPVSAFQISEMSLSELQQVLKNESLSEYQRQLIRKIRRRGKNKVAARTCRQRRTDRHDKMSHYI

[5] = growth suppression of PTEN-null colon cells, dose response, cell-based, HCT116 PTEN knockout (AID 1047);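 note: HCT116 colon tumor cells with PTEN knocked out; cells exposed to compound for 60 hours before readout; potency for loss of cell viability measured by luminescence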
[6] = growth suppression of beta-catenin-knockout colon cells, dose response, cell-based, HCT116, human colon tumor (AID 1045);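 note: HCT116 colon tumor cells with beta catenin knocked out; cells exposed to compound for 60 hours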

CCN(CC)CCn1c2ccc(F)cc2c2nc(C)sc21
AC50 [1]: 20.9 µM (active)

COC/C=C/C1=CC2=CC(=O)C(C)(OC(=O)c3cnc4ccccc4n3)C(=O)C2=CN1CCCCO (stereo not given)
IC50 [2]: 17.6 µM (active) | IC50 [3]: 6.81 µM (active)

Cc1n[nH]c(O)c1C(c1cc(Br)ccc1O)c1c(C)n[nH]c1O
EC50 (Protein RecA): 0.275 µM (active) | IC50 [2]: 23 µM (active) | AC50 [4]: 0.347 µM (active) | IC50 [3]: 34 µM (active)

CC1(OC(=O)CCc2ccccc2)C(=O)C=C2C=C3CCCN3C=C2C1=O (stereo not given)
IC50 [2]: 18.1 µM (active) | IC50 [3]: 12.1 µM (active)

COC(=O)CCCC1=CC2=CC(=O)C(C)(OC(=O)c3cccs3)C(=O)C2=CN1CC(C)C (stereo not given)
IC50 [2]: 11.1 µM (active) | IC50 [3]: 7.62 µM (active) | IC50 (Protein skinhead-1): > 100 µM (inactive)

CCN(CC)CCCNc1nc2cc(OC)c(OC)cc2c2nc(-c3cccnc3)nn12
EC50 [5]: 8.62 µM (active) | AC50 [1]: 2.15 µM (active) | EC50 [6]: 7.33 µM (active)
